We go through 25 compounds from patent publication US8455475B2 (Gruenenthal GmbH, priority 2009, dated 2013).

The assay has as its target T1, rat B1R (bradykinin receptor 1) (Rattus norvegicus, UniProt P97583).
T1 construct: expressed in transfected cells; host or cells: CHO K1 cells
T1 sequence (P97583 1-337): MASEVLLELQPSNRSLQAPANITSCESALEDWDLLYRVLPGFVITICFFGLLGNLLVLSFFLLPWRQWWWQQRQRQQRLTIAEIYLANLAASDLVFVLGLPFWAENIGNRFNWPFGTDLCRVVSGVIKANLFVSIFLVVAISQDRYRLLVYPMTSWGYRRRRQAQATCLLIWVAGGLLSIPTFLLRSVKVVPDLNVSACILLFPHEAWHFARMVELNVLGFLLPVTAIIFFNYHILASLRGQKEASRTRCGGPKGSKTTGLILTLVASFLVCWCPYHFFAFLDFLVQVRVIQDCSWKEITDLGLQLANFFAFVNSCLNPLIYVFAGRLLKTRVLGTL
In words: FLIPR Ca2+ assay (Fluo-4) on CHO K1 cells stably transfected with the B1R gene of the rat (rB1R cells): % inhibition at 10 μM / IC50, agonist Des-Arg9-bradykinin. The assay is classed as cell-based. As to conditions: CHO-K1, rat B1R. In a few lines:
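Loading with Fluo-4 occurs for 60 min at 37 °C, or alternatively in buffer A, before FLIPR measurement. Compounds are applied, incubated 10–20 min, and then the EC80 agonist is added. Antagonism appears as reduced peak Ca2+ signal relative to maximal inhibition.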
For the compound `Cc1cccc(Cl)c1C(=O)NC1CCc2ccc(C(=O)N3CCC4(CCN(Cc5ccc(C#N)cc5)CC4)C3)cc21` (stereo not shown) [IND_CC-731, 2-Chloro-N-[6-[8-[(4-cyano-phenyl)-methyl]-2,8-diazaspiro[4.5]decane-2-carbonyl]-2,3-dihydro-1H-inden-1-yl]-6-methyl-benzamide], the inhibition at 10 µM amounted to 83%.

In the case of `CN(C(=O)c1ccc(F)cc1C(F)(F)F)C1CCc2ccc(C(=O)N3CCC4(CC3)CCN(c3ccncc3)CC4)cc21` (stereo not shown) [IND_CC-380, 4-Fluoro-N-methyl-N-[6-(9-pyridin-4-yl-3,9-diazaspiro[5.5]undecane-3-carbonyl)-2,3-dihydro-1H-inden-1-yl]-2-(trifluoromethyl)-benzamide], the inhibition at 10 µM is 103%.

With `COc1ccc(CN2CCC3(CC2)CCN(C(=O)c2ccc4c(c2)C(NC(=O)c2ccccc2Cl)CC4)C3)cc1F` (stereo not shown) [IND_CC-545, 2-Chloro-N-[6-[8-[(3-fluoro-4-methoxy-phenyl)-methyl]-2,8-diazaspiro[4.5]decane-2-carbonyl]-2,3-dihydro-1H-inden-1-yl]-benzamide], the inhibition at 10 µM came out at 105%.

Take `O=C(NC1CCc2ccc(C(=O)N3CCC4(CCN(c5ccncc5)CC4)C3)cc21)C1CC1` (stereo not shown) [IND_CC-370, N-[6-(8-Pyridin-4-yl-2,8-diazaspiro[4.5]decane-2-carbonyl)-2,3-dihydro-1H-inden-1-yl]-cyclopropanecarboxylic acid amide]: the inhibition at 10 µM amounted to 100%.

Turning to `CN(C)c1ncc(CN2CCC3(CC2)CCN(C(=O)c2ccc4c(c2)C(NC(=O)c2cccc(Cl)c2Cl)CC4)C3)cn1` (stereo not shown) [IND_CC-743, 2,3-Dichloro-N-[6-[8-[(2-dimethylamino-pyrimidin-5-yl)-methyl]-2,8-diazaspiro[4.5]decane-2-carbonyl]-2,3-dihydro-1H-inden-1-yl]-benzamide], the inhibition at 10 µM was found to be 80%.

With `Cc1cc(C(=O)N2CCC3(CCN(C(=O)c4ccc5c(c4)C(NC(=O)c4ccccc4Cl)CC5)CC3)CC2)n(C(C)(C)C)n1` (stereo not shown) [IND_CC-602, N-[6-[9-(2-tert-Butyl-5-methyl-2H-pyrazole-3-carbonyl)-3,9-diazaspiro-[5.5]undecane-3-carbonyl]-2,3-dihydro-1H-inden-1-yl]-2-chloro-benzamide], the inhibition at 10 µM was 95%.

With `O=C(NC1CCc2ccc(C(=O)N3CCC4(CC3)CCN(C(=O)c3ccc(F)cc3Cl)CC4)cc21)c1ccccc1Cl` (stereo not shown) [IND_CC-599, 2-Chloro-N-[6-[9-(2-chloro-4-fluoro-benzoyl)-3,9-diazaspiro[5.5]undecane-3-carbonyl]-2,3-dihydro-1H-inden-1-yl]-benzamide], the inhibition at 10 µM turned out to be 96%.

For `Cc1cccc(Cl)c1C(=O)NC1CCc2ccc(C(=O)N3CCC4(CCN(CC(C)C)CC4)C3)cc21` (stereo not shown) [IND_CC-767, 2-Chloro-6-methyl-N-[6-[8-(2-methyl-propyl)-2,8-diazaspiro[4.5]decane-2-carbonyl]-2,3-dihydro-1H-inden-1-yl]-benzamide], the inhibition at 10 µM turned out to be 73%.

On to `CC(C)(C)CC(=O)NC1CCc2ccc(C(=O)N3CCC4(CC3)CCN(c3ccncc3)CC4)cc21` (stereo not shown) [IND_CC-371, 3,3-Dimethyl-N-[6-(9-pyridin-4-yl-3,9-diazaspiro[5.5]undecane-3-carbonyl)-2,3-dihydro-1H-inden-1-yl]-butyramide], for which the inhibition at 10 µM turned out to be 104%.

For the compound `O=C(c1ccc2c(c1)C(NS(=O)(=O)c1cccc(C(F)(F)F)c1)CC2)N1CCC2(CCN(c3ccncc3)CC2)C1` (stereo not shown) [IND_CC-342, N-[6-(8-Pyridin-4-yl-2,8-diazaspiro[4.5]decane-2-carbonyl)-2,3-dihydro-1H-inden-1-yl]-3-(trifluoromethyl)-benzenesulfonic acid amide], the inhibition at 10 µM was 103%.

As for `CN(C1CCc2ccc(C(=O)N3CCC4(CC3)CCN(c3ccncc3)CC4)cc21)S(=O)(=O)c1c(Cl)cc(Cl)cc1Cl` (stereo not shown) [IND_CC-406, 2,4,6-Trichloro-N-methyl-N-[6-(9-pyridin-4-yl-3,9-diazaspiro[5.5]undecane-3-carbonyl)-2,3-dihydro-1H-inden-1-yl]-benzenesulfonic acid amide], the inhibition at 10 µM came out at 102%.

Turning to `Cc1cccc(C(=O)NC2CCc3ccc(C(=O)N4CCC5(CC4)CCN(c4ccncc4)C5)cc32)c1C` (stereo not shown) [IND_CC-388, 2,3-Dimethyl-N-[6-(2-pyridin-4-yl-2,8-diazaspiro[4.5]decane-8-carbonyl)-2,3-dihydro-1H-inden-1-yl]-benzamide], the inhibition at 10 µM turned out to be 101%.

As for `Cn1cccc1CN1CCC2(CC1)CCN(C(=O)c1ccc3c(c1)C(NC(=O)c1cc(C(F)(F)F)ccc1Cl)CC3)CC2` (stereo not shown) [IND_CC-643, 2-Chloro-N-[6-[9-[(1-methyl-1H-pyrrol-2-yl)-methyl]-3,9-diazaspiro[5.5]-undecane-3-carbonyl]-2,3-dihydro-1H-inden-1-yl]-5-(trifluoromethyl)benzamide], the inhibition at 10 µM came out at 78%.

With `Cc1nc[nH]c1CN1CCC2(CC1)CCN(C(=O)c1ccc3c(c1)C(NC(=O)c1cc(C(F)(F)F)ccc1Cl)CC3)C2` (stereo not shown) [IND_CC-655, 2-Chloro-N-[6-[8-[(5-methyl-3H-imidazol-4-yl)-methyl]-2,8-diazaspiro[4.5]-decane-2-carbonyl]-2,3-dihydro-1H-inden-1-yl]-5-(trifluoromethyl)-benzamide], the inhibition at 10 µM was found to be 59%.

As for `N#Cc1ccc(CN2CCC3(CC2)CCN(C(=O)c2ccc4c(c2)C(NC(=O)c2cc(C(F)(F)F)ccc2Cl)CC4)CC3)cc1` (stereo not shown) [IND_CC-666, 2-Chloro-N-[6-[9-[(4-cyano-phenyl)-methyl]-3,9-diazaspiro[5.5]undecane-3-carbonyl]-2,3-dihydro-1H-inden-1-yl]-5-(trifluoromethyl)-benzamide], the inhibition at 10 µM amounted to 78%.

For the compound `CN(C1CCc2ccc(C(=O)N3CCC4(CC3)CCN(c3ccncc3)CC4)cc21)S(=O)(=O)Cc1cccc(Cl)c1` (stereo not shown) [IND_CC-351, 1-(3-Chlorophenyl)-N-methyl-N-[6-(9-pyridin-4-yl-3,9-diazaspiro[5.5]undecane-3-carbonyl)-2,3-dihydro-1H-inden-1-yl]-methanesulfonic acid amide], the inhibition at 10 µM was 99%.

`N#Cc1ccccc1CN1CCC2(CC1)CCN(C(=O)c1ccc3c(c1)C(NC(=O)c1c(F)cccc1Cl)CC3)C2` (stereo not shown) [IND_CC-740, 2-Chloro-N-[6-[8-[(2-cyano-phenyl)-methyl]-2,8-diazaspiro[4.5]decane-2-carbonyl]-2,3-dihydro-1H-inden-1-yl]-6-fluoro-benzamide]: the inhibition at 10 µM came to 88%.

As to `O=C(NC1CCc2ccc(C(=O)N3CCC4(CCN(Cc5ccc(F)cc5Cl)CC4)CC3)cc21)c1cccc(Cl)c1Cl` (stereo not shown) [IND_CC-726, 2,3-Dichloro-N-[6-[9-[(2-chloro-4-fluoro-phenyl)-methyl]-3,9-diazaspiro[5.5]undecane-3-carbonyl]-2,3-dihydro-1H-inden-1-yl]-benzamide], the inhibition at 10 µM stood at 67%.

On to `CN(C(=O)c1ccccc1Cl)C1CCc2ccc(C(=O)N3CCC4(CCN(Cc5ccc(F)cc5F)CC4)C3)cc21` (stereo not shown) [IND_CC-551, 2-Chloro-N-[6-[8-[(2,4-difluoro-phenyl)-methyl]-2,8-diazaspiro[4.5]decane-2-carbonyl]-2,3-dihydro-1H-inden-1-yl]-N-methyl-benzamide], for which the inhibition at 10 µM is 55%.

Regarding `Cc1cccc(Cl)c1C(=O)NC1CCc2ccc(C(=O)N3CCC4(CCN(Cc5ccc(F)cc5Cl)CC4)C3)cc21` (stereo not shown) [IND_CC-734, 2-Chloro-N-[6-[8-[(2-chloro-4-fluoro-phenyl)-methyl]-2,8-diazaspiro-[4.5]decane-2-carbonyl]-2,3-dihydro-1H-inden-1-yl]-6-methyl-benzamide], the inhibition at 10 µM worked out at 95%.

Take `Cc1c(CN2CCC3(CC2)CCN(C(=O)c2ccc4c(c2)C(NC(=O)c2c(F)cccc2Cl)CC4)C3)cnn1C` (stereo not shown) [IND_CC-737, 2-Chloro-N-[6-[8-[(1,5-dimethyl-1H-pyrazol-4-yl)-methyl]-2,8-diazaspiro-[4.5]decane-2-carbonyl]-2,3-dihydro-1H-inden-1-yl]-6-fluoro-benzamide]: the inhibition at 10 µM amounted to 55%.

Regarding `COc1ccc(CN2CCC3(CC2)CCN(C(=O)c2ccc4c(c2)C(N2Cc5c(c6c(Cl)cccc6n5C)C2=O)CC4)C3)cc1F` (stereo not shown) [IND_CC-794, 8-Chloro-2-[6-[8-[(3-fluoro-4-methoxy-phenyl)-methyl]-2,8-diazaspiro[4.5]-decane-2-carbonyl]-2,3-dihydro-1H-inden-1-yl]-4-methyl-3,4-dihydro-2H-pyrrolo[3,4-b]indol-1-one], the inhibition at 10 µM worked out at 59%.

As to `O=C(c1ccc2c(c1)C(N(C(=O)c1ccccc1Cl)C1CC1)CC2)N1CCC2(CCN(Cc3ccc(F)c(F)c3)CC2)C1` (stereo not shown) [IND_CC-521, 2-Chloro-N-cyclopropyl-N-[6-[8-[(3,4-difluoro-phenyl)-methyl]-2,8-diazaspiro[4.5]decane-2-carbonyl]-2,3-dihydro-1H-inden-1-yl]-benzamide], the inhibition at 10 µM is 66%.

For the compound `Cc1c(CN2CCC3(CC2)CCN(C(=O)c2ccc4c(c2)C(NC(=O)c2c(F)cccc2Cl)CC4)CC3)cnn1C` (stereo not shown) [IND_CC-798, 2-Chloro-N-[6-[9-[(1,5-dimethyl-1H-pyrazol-4-yl)-methyl]-3,9-diazaspiro-[5.5]undecane-3-carbonyl]-2,3-dihydro-1H-inden-1-yl]-6-fluoro-benzamide], the inhibition at 10 µM turned out to be 71%.

Regarding `Cn1nnc2cc(CN3CCC4(CC3)CCN(C(=O)c3ccc5c(c3)C(NC(=O)c3cc(Cl)ccc3F)CC5)C4)ccc21` (stereo not shown) [IND_CC-673, 5-Chloro-2-fluoro-N-[6-[8-[(1-methyl-1H-benzotriazol-5-yl)-methyl]-2,8-diazaspiro[4.5]decane-2-carbonyl]-2,3-dihydro-1H-inden-1-yl]-benzamide], the inhibition at 10 µM worked out at 67%.
